From PubChem BioAssay AID248 (DTP/NCI, 2004)
Values joined by “and” are separate entries in the source; they are usually repeats but may differ in a detail not shown here. Equal entries are not always repeated. Toxic doses and inconclusive results are not listed. Rule as the data show it: active = T/C of 150% or more; inactive = T/C below 125%.

Tested on: L1210 leukemia ip in BDF1 mice, survival T/C
Assay: NCI In Vivo Anticancer Drug Screen. Data for tumor model L1210 Leukemia (intraperitoneal) in B6D2F1 (BDF1) mice
Settings: endpoint: mean survival time, higher = longer survival
Summary of the method: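 Antitumor effect is assessed in tumor-bearing animals. Survival in the compound arm is compared with a vehicle-dosed control arm and expressed as their quotient.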

[1] = dose: 25.0 mg/kg/injection, schedule: Q04DX003 (ip), vehicle: Klucel (hydroxypropylcellulose) (HPC)
[2] = dose: 100.0 mg/kg/injection, schedule: Q01DX001 (ip), vehicle: Klucel (hydroxypropylcellulose) (HPC)
[3] = dose: 200.0 mg/kg/injection, schedule: Q01DX001 (ip), vehicle: Klucel (hydroxypropylcellulose) (HPC)
[4] = dose: 100.0 mg/kg/injection, schedule: Q04DX003 (ip), vehicle: saline
[5] = dose: 100.0 mg/kg/injection, schedule: Q01DX001 (ip), vehicle: saline with Tween-80
[6] = dose: 200.0 mg/kg/injection, schedule: Q01DX001 (ip), vehicle: saline with Tween-80
[7] = dose: 400.0 mg/kg/injection, schedule: Q01DX001 (ip), vehicle: saline with Tween-80
[8] = dose: 100.0 mg/kg/injection, schedule: Q04DX003 (ip), vehicle: Klucel (hydroxypropylcellulose) (HPC)
[9] = dose: 200.0 mg/kg/injection, schedule: Q04DX003 (ip), vehicle: Klucel (hydroxypropylcellulose) (HPC)
[10] = dose: 400.0 mg/kg/injection, schedule: Q04DX003 (ip), vehicle: Klucel (hydroxypropylcellulose) (HPC)
[11] = dose: 100.0 mg/kg/injection, schedule: Q01DX009 (ip), vehicle: saline with Tween-80
[12] = dose: 200.0 mg/kg/injection, schedule: Q01DX009 (ip), vehicle: saline with Tween-80
[13] = dose: 100.0 mg/kg/injection, schedule: Q01DX001 (ip), vehicle: carboxymethylcellulose (CMC)
[14] = dose: 200.0 mg/kg/injection, schedule: Q01DX001 (ip), vehicle: carboxymethylcellulose (CMC)
[15] = dose: 400.0 mg/kg/injection, schedule: Q01DX001 (ip), vehicle: carboxymethylcellulose (CMC)
[16] = dose: 100.0 mg/kg/injection, schedule: Q04DX003 (ip), vehicle: saline with Tween-80
[17] = dose: 200.0 mg/kg/injection, schedule: Q04DX003 (ip), vehicle: saline with Tween-80
[18] = dose: 100.0 mg/kg/injection, schedule: Q01DX009 (ip), vehicle: saline
[19] = dose: 200.0 mg/kg/injection, schedule: Q01DX009 (ip), vehicle: saline
[20] = dose: 200.0 mg/kg/injection, schedule: Q04DX003 (ip), vehicle: saline
[21] = dose: 400.0 mg/kg/injection, schedule: Q01DX009 (ip), vehicle: saline
[22] = dose: 400.0 mg/kg/injection, schedule: Q04DX003 (ip), vehicle: saline
[23] = dose: 400.0 mg/kg/injection, schedule: Q04DX003 (ip), vehicle: saline with Tween-80
[24] = dose: 50.0 mg/kg/injection, schedule: Q04DX003 (ip), vehicle: Klucel (hydroxypropylcellulose) (HPC)
[25] = dose: 400.0 mg/kg/injection, schedule: Q01DX001 (ip), vehicle: Klucel (hydroxypropylcellulose) (HPC)

Measured: T/C

NNC(=O)c1cccc([N+](=O)[O-])c1
inactive: dose: 12.5 mg/kg/injection, schedule: Q04DX003 (ip), vehicle: Klucel (hydroxypropylcellulose) (HPC) 100 % of control | [1] 96 % of control

Cc1ccc(S(=O)(=O)NN=C(/C=C/c2ccccc2)/C=C/c2ccccc2)cc1
inactive: dose: 50.0 mg/kg/injection, schedule: Q01DX001 (ip), vehicle: Klucel (hydroxypropylcellulose) (HPC) 102 % of control | [2] 107 % of control | [3] 103 % of control

CN(C)C(=O)c1cc[n+](Cc2ccc(Cl)cc2)cc1
inactive: [4] 98 % of control

CC(=O)Oc1c2ccsc2cc2ccsc12
inactive: [5] 100 % of control | [6] 96 % of control | [7] 96 % of control

CCNC(=O)NC(=O)CN1CCOCC1
inactive: dose: 100.0 mg/kg/injection, schedule: Q04DX003 (ip), vehicle: saline sonified 100 % of control | dose: 200.0 mg/kg/injection, schedule: Q04DX003 (ip), vehicle: saline sonified 102 % of control | dose: 400.0 mg/kg/injection, schedule: Q04DX003 (ip), vehicle: saline sonified 100 % of control

CCOC(=O)c1ccc2c3c(ccc([N+](=O)[O-])c13)CC2
inactive: dose: 50.0 mg/kg/injection, schedule: Q01DX001 (ip), vehicle: saline 98 % of control | dose: 100.0 mg/kg/injection, schedule: Q01DX001 (ip), vehicle: saline 104 % of control | dose: 200.0 mg/kg/injection, schedule: Q01DX001 (ip), vehicle: saline 101 % of control | dose: 400.0 mg/kg/injection, schedule: Q01DX001 (ip), vehicle: saline 98 % of control

ClCc1c(CCl)c2c(c3c1CCCC3)CCCC2
inactive: [8] 100 % of control | [9] 100 % of control | [10] 103 % of control

COc1ccc(CCc2ccc(OC)cc2)cc1
inactive: dose: 25.0 mg/kg/injection, schedule: Q04DX002 (ip), vehicle: saline 106 % of control | dose: 50.0 mg/kg/injection, schedule: Q04DX002 (ip), vehicle: saline 117 % of control | dose: 100.0 mg/kg/injection, schedule: Q04DX002 (ip), vehicle: saline 109 % of control

C=C(C)C1CNC(C(=O)O)C1CC(=O)O (stereo not drawn)
inactive: dose: 6.25 mg/kg/injection, schedule: Q01DX009 (ip), vehicle: saline sonified 102 % of control | dose: 12.5 mg/kg/injection, schedule: Q01DX009 (ip), vehicle: saline sonified 86 % of control

CC(=O)OC(c1ccccc1)C1CCCCC1N1CCCCC1 (stereo not drawn)
inactive: [2] 95 % of control | [3] 96 % of control

Cc1ccc2nc(-c3ccc(N)cc3)sc2c1
inactive: [11] 96 % of control | [12] 91 % of control

Cc1cn(C2CCCCO2)c(=O)nc1NO (stereo not drawn)
inactive: [13] 95 % of control | [14] 90 % of control | [15] 108 % of control

Cc1ccc(S(=O)(=O)N2CC(O)C=Cc3ccccc32)cc1 (stereo not drawn)
inactive: [13] 107 % of control | [14] 105 % of control | [15] 110 % of control

O=C(Nc1cccc(S(=O)(=O)F)c1)Oc1ccc([N+](=O)[O-])cc1
inactive: [5] 100 % of control | [11] 95 % of control and 100 % of control | dose: 100.0 mg/kg/injection, schedule: Q04DX002 (ip), vehicle: saline with Tween-80 91 % of control | [16] 95 % of control | [6] 100 % of control | [12] 98 % of control and 102 % of control | dose: 200.0 mg/kg/injection, schedule: Q04DX002 (ip), vehicle: saline with Tween-80 91 % of control | [17] 100 % of control | [7] 98 % of control | dose: 400.0 mg/kg/injection, schedule: Q01DX009 (ip), vehicle: saline with Tween-80 88 % of control | dose: 400.0 mg/kg/injection, schedule: Q04DX002 (ip), vehicle: saline with Tween-80 90 % of control

CCOC(=O)/C=C/c1c[nH]c(=O)[nH]c1=O
inactive: [18] 109 % of control | [4] 103 % of control | [19] 111 % of control | [20] 97 % of control | [21] 105 % of control | [22] 94 % of control

CCCCCC(C)NCC(C)(C)O (stereo not drawn)
inactive: dose: 75.0 mg/kg/injection, schedule: Q01DX001 (ip), vehicle: acid diluted with saline 102 % of control

COC(=O)n1nc2ccccc2c1N
inactive: dose: 50.0 mg/kg/injection, schedule: Q01DX009 (ip), vehicle: saline 96 % of control | [18] 96 % of control | [19] 93 % of control

CCCN(CCC)C(=O)C(=O)OCC
inactive: dose: 6.25 mg/kg/injection, schedule: Q04DX003 (ip), vehicle: saline with Tween-80 102 % of control | dose: 12.5 mg/kg/injection, schedule: Q04DX003 (ip), vehicle: saline with Tween-80 94 % of control | dose: 25.0 mg/kg/injection, schedule: Q04DX003 (ip), vehicle: saline with Tween-80 98 % of control

O=C1CCN2C=CC=CC2=N1
inactive: [18] 98 % of control | [4] 100 % of control | [19] 93 % of control | [20] 101 % of control | [21] 97 % of control | [22] 106 % of control

COc1cc2c(cc1OC)-c1nc(C)sc1CC2
inactive: [16] 98 % of control | [17] 95 % of control | [23] 98 % of control

CC(=O)SCCCCl
inactive: [4] 105 % of control | [20] 101 % of control | [22] 102 % of control

CC(=O)CC(=O)c1cc(C(C)=O)c(O)c(C(C)=O)c1
inactive: [24] 101 % of control | [8] 108 % of control | [9] 103 % of control | [10] 101 % of control

NC(Cc1ccccc1)c1ccc2oc3ccccc3c2c1 (stereo not drawn)
inactive: [2] 96 % of control | [3] 100 % of control | [25] 103 % of control

COCC(O)C(OC)C(OC)C(C=O)NC(=O)NCCCl (stereo not drawn)
inactive: [2] 102 % of control | [3] 103 % of control | [25] 100 % of control

O=C(CC(O)(C(F)(F)F)C(F)(F)F)c1cccc(S(=O)(=O)F)c1
inactive: [16] 95 % of control | [17] 100 % of control

Cc1ccc(C(=O)N(N)C2CCCCC2)cc1
inactive: [16] 95 % of control | [17] 93 % of control | [23] 96 % of control

O=C(/C=C/c1ccco1)c1ccc([N+](=O)[O-])cc1
inactive: [1] 106 % of control | [24] 104 % of control | [8] 97 % of control

Cc1ccc(C)c(NC(=O)Nc2ccccc2C)c1
inactive: dose: 100.0 mg/kg/injection, schedule: Q01DX009 (ip), vehicle: Klucel (hydroxypropylcellulose) (HPC) 88 % of control | [8] 86 % of control | dose: 200.0 mg/kg/injection, schedule: Q01DX009 (ip), vehicle: Klucel (hydroxypropylcellulose) (HPC) 101 % of control and 90 % of control | [9] 89 % of control | [10] 89 % of control
